Reference: patent US10087188B2, “Benzamide imidazopyrazine Btk inhibitors” (MERCK SHARP & DOHME CORP., priority 2014, dated 2018)
Where two headings read alike, the source gives them in different places.

How the values were obtained:
[1] = biological target: BTK enzyme (recombinant full-length BTK, hBTK) (Homo sapiens (Human), UniProt Q06187); experiment: Btk enzyme activity assay, LANCE TR-FRET; type: biochemical; conditions: 50 pM hBTK, 2 μM biotin-A5-peptide, 25 μM ATP; 60 minute compound & enzyme incubation; read-out: BTK binding IC50
Chain of BTK enzyme (recombinant full-length BTK, hBTK) (Q06187 whole entry): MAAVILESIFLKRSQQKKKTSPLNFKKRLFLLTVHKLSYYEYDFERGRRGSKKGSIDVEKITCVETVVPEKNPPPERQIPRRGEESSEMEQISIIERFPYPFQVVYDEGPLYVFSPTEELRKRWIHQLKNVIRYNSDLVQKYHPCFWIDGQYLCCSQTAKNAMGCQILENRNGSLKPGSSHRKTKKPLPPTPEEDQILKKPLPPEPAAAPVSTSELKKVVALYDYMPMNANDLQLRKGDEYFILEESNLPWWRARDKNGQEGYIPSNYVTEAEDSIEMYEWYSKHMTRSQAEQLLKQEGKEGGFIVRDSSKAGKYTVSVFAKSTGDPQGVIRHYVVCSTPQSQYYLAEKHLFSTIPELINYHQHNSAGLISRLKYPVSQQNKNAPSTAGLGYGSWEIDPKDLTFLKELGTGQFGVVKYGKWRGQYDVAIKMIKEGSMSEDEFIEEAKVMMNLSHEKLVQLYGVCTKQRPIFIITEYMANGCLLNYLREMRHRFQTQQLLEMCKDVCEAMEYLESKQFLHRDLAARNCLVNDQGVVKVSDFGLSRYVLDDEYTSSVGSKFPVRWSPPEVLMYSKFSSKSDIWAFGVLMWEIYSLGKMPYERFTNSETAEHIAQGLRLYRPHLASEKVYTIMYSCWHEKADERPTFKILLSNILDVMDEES
Protocol: Btk Enzyme Activity Assay Methods
BTK enzymatic activity was determined with the LANCE (Lanthanide Chelate Excite) TR-FRET (Time-resolved fluorescence resonance energy transfer) assay. […] After 60 minutes incubation with detection reagents, reaction plates were read on a PerkinElmer EnVision plate reader using standard TR-FRET protocol.

[2] = tested on: HeLa cells; experiment: [3H] Adenosine uptake assay; type: cell-based; conditions: accumulation of tritiated adenosine into HeLa cells, compound concentration range 10 μM to 0.032 nM, read-out: ADU inhibition IC50 (adenosine uptake inhibition potency)
Summary of the method: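 Accumulation of tritiated adenosine in adherent HeLa cells, detected by scintillant-plate coincidence counting, gives IC50 via 4-parameter robust fit. Compound (constant 0.25% DMSO) applied 30 min ahead, then 60 min radiolabel exposure (added from 500 nM solution), ambient conditions, HBSS with 5% FBS.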

SMILES | IC50 [1] [nM] | IC50 ([2]; Homo sapiens, HeLa) [nM] | IC50 [2] [nM]
CCOc1cc(C(=O)Nc2cc(C(F)(F)F)ccn2)ccc1-c1nc([C@@H]2CC[C@H](C(C)C)[C@H](C(=O)O)C2)n2ccnc(N)c12 [Example 98, (1R,2R,5R)-5-[8-amino-1-(2-ethoxy-4-{[4-(trifluoromethyl)pyridin-2-yl]carbamoyl}phenyl)imidazo[1,5-a]pyrazin-3-yl]-2-(1-methylethyl) cyclohexane-carboxylic acid] | 4 | 8770 | 
Nc1nccn2c([C@H]3CC[C@@H](CC(=O)O)C3)nc(-c3ccc(C(=O)Nc4cc(C(F)(F)F)ccn4)cc3)c12 [Example 50, {(1R,3S)-3-[8-amino-1-(4-{[4-(trifluoromethyl)pyridin-2-yl]carbamoyl}phenyl)imidazo[1,5-a]pyrazin-3-yl]cyclopentyl}acetic acid] | 0.26 | 3700 | 
CN1CC[C@H](c2nc(-c3ccc(C(=O)Nc4cc(C(F)(F)F)ccn4)cc3)c3c(N)nccn23)C[C@@H]1C(=O)O [Example 83, (2R.4S)-4-[8-amino-1-(4-{[4-(trifluoromethyl)pyridin-2-yl]carbamoyl}phenyl)imidazo[1,5-a]pyrazin-3-yl]-1-methylpiperidine-2-carboxylic acid] | 10.2 | 1140 | 
Nc1nccn2c([C@H]3CC[C@H]4[C@H](C(=O)O)[C@H]43)nc(-c3ccc(C(=O)Nc4cc(C(F)(F)F)ccn4)cc3)c12 [Example 57, (1R,2S,5R,6S)-2-[8-amino-1-(4-{[4-(trifluoromethyl)pyridin-2-yl]carbamoyl}phenyl)imidazo[1,5-a]pyrazin-3-yl]bicyclo[3.1.0] hexane-6-carboxylic acid] | 3.2 | 10000 | 
CC1(C)[C@@H](c2nc(-c3ccc(C(=O)Nc4cc(C(F)(F)F)ccn4)cc3)c3c(N)nccn23)CC[C@@]1(C)C(=O)O [Example 77, (1R,3S)-3-[8-amino-1-(4-{[4-(trifluoromethyl)pyridin-2-yl]carbamoyl}phenyl)imidazo[1,5-a]pyrazin-3-yl]-1,2,2-trimethylcyclopentane carboxylic acid] | 4.6 | 3920 | 
CCOc1cc(C(=O)Nc2cc(C(F)(F)F)ccn2)ccc1-c1nc([C@H]2CC[C@@](C)(C(=O)O)C2(C)C)n2ccnc(N)c12 [Example 72, (1R,3S)-3-[8-amino-1-(2-ethoxy-4-{[4-(trifluoromethyl)pyridin-2-yl]carbamoyl}phenyl)imidazo[1,5-a]pyrazin-3-yl]-1,2,2-trimethylcyclopentane carboxylic acid] | 0.61 | 3200 | 
CC1(C(=O)O)CCC(N2CCO[C@@H](c3nc(-c4ccc(C(=O)Nc5cc(C(F)(F)F)ccn5)cc4)c4c(N)nccn34)C2)CC1 (stereo partly drawn) [Example 176, (R)-4-(2-(8-amino-1-(4-((4-(trifluoromethyl)pyridin-2-yl)carbamoyl)phenyl)imidazo[1,5-a]pyrazin-3-yl)morpholino)-1-methylcyclohexanecarboxylic acid] | 0.49 | 1320 | 
C[C@@]1(C(=O)O)CC[C@@](C)(c2nc(-c3ccc(C(=O)Nc4cc(C(F)(F)F)ccn4)cc3F)c3c(N)nccn23)C1 [Example 136, (1R,3R)-3-[8-amino-1-(2-fluoro-4-{[4-(trifluoromethyl)pyridin-2-yl]carbamoyl}phenyl)imidazo[1,5-a]pyrazin-3-yl]-1,3-dimethylcyclopentane carboxylic acid] | 0.17 | 3420 | 
C[C@]1(C(=O)O)CC[C@@](C)(c2nc(-c3ccc(C(=O)Nc4cc(C(F)(F)F)ccn4)cc3)c3c(N)nccn23)C1 [Example 80, (1S,3R)-3-[8-amino-1-(4-{[4-(trifluoromethyl)pyridin-2-yl]carbamoyl}phenyl)imidazo[1,5-a]pyrazin-3-yl]-1,3-dimethylcyclopentane carboxylic acid] | 2.4 | 9480 | 
Cc1cnc(N)c2c(-c3ccc(C(=O)Nc4ccccn4)cc3)nc([C@H]3CN([C@H]4CC[C@](C)(C(=O)O)CC4)CCO3)n12 [Example 199, trans-4-[(2R)-2-{8-amino-5-methyl-1-[4-(pyridin-2-ylcarbamoyl)phenyl]imidazo [1,5-a]pyrazin-3-yl}morpholin-4-yl]-1-methylcyclohexanecarboxylic acid] | 5.9 | 2020 | 
C[C@@]1(C(=O)O)CC[C@@](C)(c2nc(-c3ccc(C(=O)Nc4cc(C(F)(F)F)ccn4)cc3Cl)c3c(N)nccn23)C1 [Example 132, (1R,3R)-3-[8-amino-1-(2-chloro-4-{[4-(trifluoromethyl)pyridin-2-yl]carbamoyl}phenyl)imidazo[1,5-a]pyrazin-3-yl]-1,3-dimethylcyclopentane carboxylic acid] | 0.25 | 3160 | 
CCOc1cc(C(=O)Nc2cc(C3CC3)ccn2)cc(F)c1-c1nc([C@@]2(C)CC[C@](C)(C(=O)O)C2)n2ccnc(N)c12 [Example 123, (1S,3S)-3-(8-amino-1-{4-[(4-cyclopropylpyridin-2-yl)carbamoyl]-2-ethoxy-6-fluorophenyl}imidazo [1,5-a]pyrazin-3-yl)-1,3-dimethylcyclopentane carboxylic acid] | 0.57 | 10000 | 
C[C@H]1CO[C@@H](c2nc(-c3ccc(C(=O)Nc4cc(C5CC5)ccn4)cc3F)c3c(N)nccn23)CN1[C@H]1CC[C@](C)(C(=O)O)CC1 [Example 210, trans-4-[(2R,5S)-2-(8-amino-1-{4-[(4-cyclopropylpyridin-2-yl)carbamoyl]-2-fluorophenyl}imidazo[1,5-a]pyrazin-3-yl)-5-methylmorpholin-4-yl]-1-methylcyclohexanecarboxylic acid] | 1.5 | 6270 | 
CC(C)C1(C(=O)O)CCC(C)(c2nc(-c3ccc(C(=O)Nc4cc(C(F)(F)F)ccn4)cc3)c3c(N)nccn23)C1 (centres unmarked) [Example 145, 3-[8-amino-1-(4-{[4-(trifluoromethyl)pyridin-2-yl]carbamoyl}phenyl)imidazo[1,5-a]pyrazin-3-yl]-3-methyl-1-(1-methylethyl) cyclopentane-carboxylic acid] | 57.2 |  | 10000
C[C@H]1CO[C@@H](c2nc(-c3ccc(C(=O)Nc4cc(C(F)F)ccn4)cc3)c3c(N)ncc(Cl)n23)CN1[C@H]1CC[C@](C)(C(=O)O)CC1 [Example 205, trans-4-{(2R,5S)-2-[8-amino-5-chloro-1-(4-{[4-(difluoromethyl)pyridin-2-yl]carbamoyl}phenyl)imidazo [1,5-a]pyrazin-3-yl]-5-methylmorpholin-4-yl}-1-methylcyclohexanecarboxylic acid] | 1.3 | 10000 | 
CCOc1cc(C(=O)Nc2cc(C(F)(F)F)ccn2)ccc1-c1nc([C@H]2C[C@H]3CC[C@@H](C2)[C@H]3C(=O)O)n2ccnc(N)c12 [Example 104, (3-endo,8-syn)-3-[8-amino-1-(2-ethoxy-4-{[4-(trifluoromethyl)pyridin-2-yl]carbamoyl}phenyl)imidazo[1,5-a]pyrazin-3-yl]bicyclo[3.2.1] octane-8-carboxylic acid] | 5.2 | 10000 | 
C[C@@]1(C(=O)O)CCCN(c2nc(-c3ccc(C(=O)Nc4cc(C(F)(F)F)ccn4)cc3)c3c(N)nccn23)C1 [Example 41, (3R)-1-[8-amino-1-(4-{[4-(trifluoromethyl)pyridin-2-yl]carbamoyl}phenyl)imidazo[1,5-a]pyrazin-3-yl]-3-methylpiperidine-3-carboxylic acid] | 7.6 | 4290 | 
C[C@@]1(C(=O)O)CC[C@](C)(c2nc(-c3ccc(C(=O)Nc4cc(C(F)(F)F)ccn4)cc3)c3c(N)nccn23)C1 [Example 81, (1R.3S)-3-[8-amino-1-(4-{[4-(trifluoromethyl)pyridin-2-yl]carbamoyl}phenyl)imidazo[1,5-a]pyrazin-3-yl]-1,3-dimethylcyclopentane carboxylic acid] | 8.2 | 10000 | 
Nc1nccn2c([C@@H]3CC[C@H](CC(=O)O)C3)nc(-c3ccc(C(=O)Nc4cc(C(F)(F)F)ccn4)cc3)c12 [Example 54, {(1S,3R)-3-[8-amino-1-(4-{[4-(trifluoromethyl)pyridin-2-yl]carbamoyl}phenyl)imidazo[1,5-a]pyrazin-3-yl]cyclopentyl}acetic acid] | 0.18 | 10000 | 
CCOc1cc(C(=O)Nc2cc(C3CC3)ccn2)cc(F)c1-c1nc(C2(C)CCC(C)(C(=O)O)CC2)n2ccnc(N)c12 (centres unmarked) [Example 131, 4-(8-amino-1-{4-[(4-cyclopropylpyridin-2-yl)carbamoyl]-2-ethoxy-6-fluorophenyl}imidazo [1,5-a]pyrazin-3-yl)-1,4-dimethylcyclohexane-carboxylic acid] | 0.75 | 10000 | 
Nc1nccn2c(-c3ccc(C(=O)O)[nH]3)nc(-c3ccc(C(=O)Nc4cc(C(F)(F)F)ccn4)cc3)c12 [Example 27, 5-[8-amino-1-(4-{[4-(trifluoromethyl)pyridin-2-yl]carbamoyl}phenyl)imidazo[1,5-a]pyrazin-3-yl]-1H-pyrrole-2-carboxylic acid] | 2 | 10000 | 
C[C@H]1CO[C@@H](c2nc(-c3ccc(C(=O)Nc4cc(C(F)(F)F)ccn4)cc3F)c3c(N)nccn23)CN1[C@H]1CC[C@](C)(C(=O)O)CC1 [Example 193, trans-4-{(2R,5S)-2-[8-amino-1-(2-fluoro-4-{[4-(trifluoromethyl)pyridin-2-yl]carbamoyl}phenyl)imidazo [1,5-a]pyrazin-3-yl]-5-methylmorpholin-4-yl}-1-methylcyclohexanecarboxylic acid] | 0.56 | 2840 | 
